Source: ChEMBL document CHEMBL5550091 (2024)
Active and inactive are the calls of the source. The rule behind the calls is not given here.

How the values were obtained:
[1] = Displacement of BODIPY TMR-X-labeled P11 peptide from recombinant N-terminal deca-His/SUMO tagged RTA (1 to 267 residues) (unknown origin) expressed in Escherichia coli BL21 (DE3) assessed as inhibition constant incubated for 30 mins by competition binding based fluorescence polarization assay
[2] = Displacement of BODIPY TMR-X-labeled P11 peptide from recombinant N-terminal deca-His/SUMO tagged RTA (1 to 267 residues) (unknown origin) expressed in Escherichia coli BL21 (DE3) incubated for 30 mins by competition binding based fluorescence polarization assay
[3] = Inhibition of recombinant N-terminal deca-His/SUMO tagged RTA (1 to 267 residues) (unknown origin) expressed in Escherichia coli BL21 (DE3) mediated ribosome depurination activity assessed as reduction in ribosomal RNA depurination preincubated with compound for 5 mins followed by addition of rat liver ribosomes and measured after 5 mins by qRT-PCR analysis; assay type: subcellular
[4] = Inhibition of recombinant N-terminal deca-His/SUMO tagged RTA (1 to 267 residues) (unknown origin) expressed in Escherichia coli BL21 (DE3) mediated ribosome depurination activity assessed as maximal inhibition of cellular ribosomal RNA depurination preincubated with compound for 5 mins followed by addition of rat liver ribosomes and measured after 5 mins by qRT-PCR analysis relative to control; assay type: subcellular; settings: time 10.0 min
[5] = cells; assay type: cell-based; settings: Vero, 2 h
[6] = cells; assay type: cell-based; settings: A549, 2 h
[7] = Inhibition of STX2A1 (unknown origin) mediated ribosomal depurination activity assessed as reduction in ribosomal RNA depurination preincubated with compound for 5 mins followed by addition of rat liver ribosomes and measured after 5 mins by qRT-PCR analysis; assay type: subcellular, Ribosome

Compound	Ki [1] [µM]	IC50 [2] [µM]	IC50 [3] [µM]	Imax [4] [%]	other results
O=C(O)c1ccc(-c2ccccc2)s1	58	224	408	–	–
NC(=O)c1cccc2c1-c1ccccc1C2=O	–	–	–	–	Activity [2]: inactive
O=C(O)c1cc2c(s1)-c1cc(Cl)ccc1SC2	15	59	–	–	–
O=C(O)c1cc2c(s1)-c1ccccc1CC2	–	–	–	100	–
O=C(O)c1cc2c(s1)-c1ccc(F)cc1CC2	–	17	32	104	–
H-SDDDMGFGLFD-OH	1	4	31	–	–
CC1(C)Cc2cc(C(=O)O)sc2-c2ccccc21	–	–	23	112	EC50 [5]: 29 µM; EC50 [6]: 92 µM; IC50 [7]: 83 µM
Cc1cccc(C)c1-c1ccc(C(=O)O)s1	–	31	45	102	–
H-RGWGHPSGYS-OH	–	–	–	–	Activity [2]: inactive
